In assay [1] the target is T1, Adenosine receptor A1 (Homo sapiens, UniProt P30542).
T1 sequence (P30542 whole entry): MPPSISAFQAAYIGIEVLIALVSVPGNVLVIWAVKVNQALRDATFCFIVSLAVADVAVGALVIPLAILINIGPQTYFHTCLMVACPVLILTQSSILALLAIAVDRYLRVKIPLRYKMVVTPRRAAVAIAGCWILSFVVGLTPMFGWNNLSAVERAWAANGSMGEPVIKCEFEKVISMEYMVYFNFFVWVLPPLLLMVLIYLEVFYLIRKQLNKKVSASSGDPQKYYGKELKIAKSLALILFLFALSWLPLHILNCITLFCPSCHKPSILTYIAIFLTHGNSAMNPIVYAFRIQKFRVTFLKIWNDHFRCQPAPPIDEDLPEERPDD
Nature of the assay: Displacement of [3H]CCPA from human adenosine A1 receptor expressed in CHO cells. It is filed as cell-based.

For assay [2], the target named is T2, Adenosine receptor A3 (Homo sapiens, UniProt P0DMS8).
T2 sequence (P0DMS8 whole entry): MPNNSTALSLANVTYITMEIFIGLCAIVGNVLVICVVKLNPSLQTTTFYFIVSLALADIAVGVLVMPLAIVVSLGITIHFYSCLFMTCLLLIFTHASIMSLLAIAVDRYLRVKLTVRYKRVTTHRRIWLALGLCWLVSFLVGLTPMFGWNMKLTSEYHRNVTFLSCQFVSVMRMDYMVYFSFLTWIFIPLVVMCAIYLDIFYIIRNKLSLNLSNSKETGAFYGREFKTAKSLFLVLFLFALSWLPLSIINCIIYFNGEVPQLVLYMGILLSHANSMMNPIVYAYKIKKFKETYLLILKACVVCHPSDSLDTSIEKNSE
Put plainly: Displacement of [3H]NECA from human adenosine A3 receptor expressed in CHO cells. The assay is classed as cell-based.

In assay [3] the target is T3, Adenosine receptor A2b (Homo sapiens, UniProt P29275).
T3 sequence (P29275 whole entry): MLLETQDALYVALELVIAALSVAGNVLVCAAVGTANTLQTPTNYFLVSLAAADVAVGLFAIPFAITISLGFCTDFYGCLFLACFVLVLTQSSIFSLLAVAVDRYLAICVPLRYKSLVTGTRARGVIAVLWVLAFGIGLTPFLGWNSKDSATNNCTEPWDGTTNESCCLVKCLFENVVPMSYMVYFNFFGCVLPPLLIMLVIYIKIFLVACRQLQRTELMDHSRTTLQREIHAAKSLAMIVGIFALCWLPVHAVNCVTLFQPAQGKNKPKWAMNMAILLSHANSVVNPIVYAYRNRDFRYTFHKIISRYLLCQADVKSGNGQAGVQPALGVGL
Put plainly: Antagonist activity at human adenosine A2B receptor expressed in CHO cells assessed as inhibition of NECA-induced adenylyl cyclase activity. The assay is classed as functional, cell-based.

Assay [4] deals with Adenosine receptor A2a (Homo sapiens, UniProt P29274). Put plainly: biochemical.
Sequence of Adenosine receptor A2a (P29274 whole entry): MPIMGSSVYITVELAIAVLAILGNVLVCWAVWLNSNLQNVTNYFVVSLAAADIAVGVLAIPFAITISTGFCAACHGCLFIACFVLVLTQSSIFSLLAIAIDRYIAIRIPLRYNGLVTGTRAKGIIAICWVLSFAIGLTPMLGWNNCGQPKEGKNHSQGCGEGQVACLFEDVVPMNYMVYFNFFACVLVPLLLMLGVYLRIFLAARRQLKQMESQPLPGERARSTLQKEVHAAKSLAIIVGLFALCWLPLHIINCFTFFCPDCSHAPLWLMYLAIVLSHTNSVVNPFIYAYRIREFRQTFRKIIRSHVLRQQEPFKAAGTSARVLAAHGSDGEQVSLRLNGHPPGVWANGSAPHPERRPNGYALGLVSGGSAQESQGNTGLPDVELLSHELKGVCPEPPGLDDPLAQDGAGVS
Description: Displacement of [3H]NECA from human adenosine A2A receptor expressed in CHO cells

On to `O=C(Nc1nc2nn(CCc3ccccc3)cc2c2nc(-c3ccco3)nn12)C(c1ccccc1)c1ccccc1`, for which the figures for the Ki in assay [1], in assay [2] and in assay [4] were 115 nM, 6.49 nM and 53.1 nM, respectively. Besides, the IC50 in assay [3] is 5840 nM.
For `CC(C)CCn1cc2c(nc(NC(=O)Cc3cccc(Cl)c3)n3nc(-c4ccco4)nc23)n1`, the Ki stood at 13.7 nM in assay [1], 273 nM in assay [2] and 1.86 nM in assay [4]. Also, the 50% inhibitory concentration (IC50) in assay [3] came to 1390 nM.
The corresponding values for `O=C(Nc1nc2nn(CCCc3ccccc3)cc2c2nc(-c3ccco3)nn12)C(c1ccccc1)c1ccccc1` are 307 nM, 12.6 nM, 326 nM and over 10000 nM.
The matching figures for `O=C(Cc1ccccc1)Nc1nc2nn(CCc3ccccc3)cc2c2nc(-c3ccco3)nn12`: 128 nM, 5.49 nM, 43.9 nM and over 3000 nM.
The corresponding values for `CCn1cc2c(nc(NC(=O)Cc3ccc(-c4ccccc4)cc3)n3nc(-c4ccco4)nc23)n1` are 557 nM, 14.2 nM, 70.9 nM and over 50000 nM.
For the molecule `CC(C)CCn1cc2c(nc(NC(=O)Cc3ccc(F)cc3)n3nc(-c4ccco4)nc23)n1`, the values for the Ki in assay [1], in assay [2] and in assay [4] were 51.8 nM, 116 nM and 3.69 nM, respectively. The IC50 in assay [3] turned out to be 5060 nM.
The corresponding values for `CCn1cc2c(nc(NC(=O)Cc3ccc4ccccc4c3)n3nc(-c4ccco4)nc23)n1` are 185 nM, 36.3 nM, 18.4 nM and 10400 nM.
The matching figures for `Cn1cc2c(nc(NC(=O)Cc3c(Cl)cccc3Cl)n3nc(-c4ccco4)nc23)n1`: 908 nM, 44.4 nM, 45.2 nM and 6450 nM.
On to `CCCCn1cc2c(nc(NC(=O)Cc3cccs3)n3nc(-c4ccco4)nc23)n1`, for which the inhibition constant (Ki) came to 70.1 nM in assay [1], 99.8 nM in assay [2] and 4.15 nM in assay [4]. In addition, the IC50 in assay [3] was 1810 nM.
As to `Cn1cc2c(nc(NC(=O)C(c3ccccc3)c3ccccc3)n3nc(-c4ccco4)nc23)n1`, the Ki in assay [1] was found to be 139 nM; in assay [2], 0.25 nM; in assay [4], 216 nM. Moreover, in assay [3], the IC50 was determined as 363 nM.
The corresponding values for `CCCn1cc2c(nc(NC(=O)Cc3ccc(-c4ccccc4)cc3)n3nc(-c4ccco4)nc23)n1` are 622 nM, 65.4 nM, 52.5 nM and over 10000 nM.
Take `O=C(Cc1ccc(F)cc1)Nc1nc2nn(CCCc3ccccc3)cc2c2nc(-c3ccco3)nn12`: the figures for the Ki in assay [1], in assay [2] and in assay [4] were 726 nM, 58.5 nM and 211 nM, respectively. Moreover, in assay [3], the IC50 is over 50000 nM.
The matching figures for `O=C(Cc1ccc2ccccc2c1)Nc1nc2nn(CCc3ccccc3)cc2c2nc(-c3ccco3)nn12`: 57.5 nM, 180 nM, 42.1 nM and over 50000 nM.
The matching figures for `Cn1cc2c(nc(NC(=O)Cc3ccc(-c4ccccc4)cc3)n3nc(-c4ccco4)nc23)n1`: 1460 nM, 11.2 nM, 193 nM and over 10000 nM.
The matching figures for `CC(C)CCn1cc2c(nc(NC(=O)Cc3ccc(C(F)(F)F)cc3)n3nc(-c4ccco4)nc23)n1`: 48.2 nM, 266 nM, 5.43 nM and 5480 nM.
On to `CCCCn1cc2c(nc(NC(=O)C(c3ccccc3)c3ccccc3)n3nc(-c4ccco4)nc23)n1`, for which the Ki in assay [1] was 129 nM; in assay [2], 1.2 nM; in assay [4] it was 114 nM. Moreover, in assay [3], the half-maximal inhibitory concentration (IC50) was determined as 780 nM.
The matching figures for `COc1ccc(CC(=O)Nc2nc3nn(C)cc3c3nc(-c4ccco4)nn23)cc1`: 133 nM, 0.95 nM, 62.5 nM and over 10000 nM.
`CCCn1cc2c(nc(NC(=O)C(c3ccccc3)c3ccccc3)n3nc(-c4ccco4)nc23)n1`: the Ki was 80.2 nM in assay [1], 0.93 nM in assay [2] and 46.5 nM in assay [4]. The IC50 in assay [3] was 491 nM.
The corresponding values for `O=C(Cc1cccc(Cl)c1)Nc1nc2nn(CCCc3ccccc3)cc2c2nc(-c3ccco3)nn12` are 605 nM, 110 nM, 182 nM and 50000 nM.
As for `O=C(Cc1ccc2ccccc2c1)Nc1nc2nn(CCCc3ccccc3)cc2c2nc(-c3ccco3)nn12`, the Ki in assay [1] was determined as 241 nM; in assay [2] it was 717 nM; in assay [4], 73.6 nM. Moreover, the IC50 in assay [3] was over 50000 nM.
Regarding `CC(C)CCn1cc2c(nc(NC(=O)C(c3ccccc3)c3ccccc3)n3nc(-c4ccco4)nc23)n1`, the Ki in assay [1] came out at 441 nM; in assay [2] it was 5.86 nM; in assay [4], 159 nM. Besides, in assay [3], the IC50 is over 10000 nM.
Consider `Cn1cc2c(nc(NC(=O)Cc3ccc4ccccc4c3)n3nc(-c4ccco4)nc23)n1`, for which the figures for the inhibition constant (Ki) in assay [1], in assay [2] and in assay [4] were 190 nM, 14.5 nM and 77.5 nM, respectively. The half-inhibitory concentration (IC50) in assay [3] was over 10000 nM.
The corresponding values for `Cn1cc2c(nc(NC(=O)Cc3ccsc3)n3nc(-c4ccco4)nc23)n1` are 461 nM, 1.25 nM, 31.3 nM and 13700 nM.
The matching figures for `CC(C)CCn1cc2c(nc(NC(=O)Cc3ccc(Cl)cc3)n3nc(-c4ccco4)nc23)n1`: 22.6 nM, 56.5 nM, 2.75 nM and 1220 nM.
The matching figures for `CCn1cc2c(nc(NC(=O)Cc3cccs3)n3nc(-c4ccco4)nc23)n1`: 148 nM, 196 nM, 15.9 nM and 15000 nM.
Consider `O=C(Cc1ccc(-c2ccccc2)cc1)Nc1nc2nn(CCCc3ccccc3)cc2c2nc(-c3ccco3)nn12`, for which the inhibition constant Ki in assay [1] worked out at 1170 nM; in assay [2], 410 nM; in assay [4] it was 256 nM. Further, the IC50 in assay [3] is over 100000 nM.
The corresponding values for `O=C(Cc1c(Cl)cccc1Cl)Nc1nc2nn(CCCc3ccccc3)cc2c2nc(-c3ccco3)nn12` are 786 nM, 601 nM, 186 nM and over 10000 nM.
`Cn1cc2c(nc(NC(=O)Cc3cccs3)n3nc(-c4ccco4)nc23)n1`: the Ki in assay [1] was 444 nM; in assay [2] it was 5.26 nM; in assay [4], 56 nM. In addition, the IC50 in assay [3] is over 10000 nM.
Take `Cn1cc2c(nc(NC(=O)Cc3ccc(C(F)(F)F)cc3)n3nc(-c4ccco4)nc23)n1`: the Ki amounted to 768 nM in assay [1], 1.22 nM in assay [2] and 75.9 nM in assay [4]. Moreover, in assay [3], the IC50 was over 10000 nM.
The corresponding values for `Cn1cc2c(nc(NC(=O)Cc3ccc(F)cc3)n3nc(-c4ccco4)nc23)n1` are 741 nM, 0.97 nM, 54.1 nM and 13000 nM.
